Measurements as given in ChEMBL document CHEMBL4145553, “Design, synthesis, and biological evaluation of novel amide and hydrazide based thioether analogs targeting Histone deacteylase (HDAC) enzymes” (Eur J Med Chem, 2018).

How the values were obtained:
SK-MEL-5 = assay: Growth of human SK-MEL-5 cells at 10 uM incubated for 48 hrs by sulforhodamine B assay relative to control; conditions: SK-MEL-5, 48 h
HOP-62 = assay: Growth of human HOP62 cells at 10 uM incubated for 48 hrs by sulforhodamine B assay relative to control; conditions: HOP-62, 48 h
OVCAR-5 = assay: Growth of human OVCAR5 cells at 10 uM incubated for 48 hrs by sulforhodamine B assay relative to control; conditions: OVCAR-5, 48 h
HL-60(TB) = assay: Growth inhibition of human HL-60(TB) cells at 10 uM incubated for 48 hrs by sulforhodamine B assay relative to control; assay type: functional; conditions: HL-60, 48 h, values are per cent of control
Malme-3M = assay: Growth of human MALME-3M cells at 10 uM incubated for 48 hrs by sulforhodamine B assay relative to control
UACC-257 = assay: Growth of human UACC257 cells at 10 uM incubated for 48 hrs by sulforhodamine B assay relative to control; conditions: UACC-257, 48 h
SF-539 = assay: Growth of human SF539 cells at 10 uM incubated for 48 hrs by sulforhodamine B assay relative to control; conditions: SF-539, 48 h
OVCAR-4 = assay: Growth of human OVCAR4 cells at 10 uM incubated for 48 hrs by sulforhodamine B assay relative to control; conditions: OVCAR-4, 48 h
A549 = assay: Growth of human A549/ATCC cells at 10 uM incubated for 48 hrs by sulforhodamine B assay relative to control; conditions: A549, 48 h
MCF7 = assay: Growth inhibition of human MCF7 cells at 10 uM incubated for 48 hrs by sulforhodamine B assay relative to control; assay type: functional; conditions: MCF7, 48 h, values are per cent of control
HCT-116 = assay: Growth of human HCT116 cells at 10 uM incubated for 48 hrs by sulforhodamine B assay relative to control; conditions: HCT-116, 48 h
TK-10 = assay: Growth inhibition of human TK10 cells at 10 uM incubated for 48 hrs by sulforhodamine B assay relative to control; assay type: functional; conditions: TK-10, 48 h, values are per cent of control
IGROV-1 = assay: Growth of human IGROV1 cells at 10 uM incubated for 48 hrs by sulforhodamine B assay relative to control; conditions: IGROV-1, 48 h
T47D = assay: Growth inhibition of human T47D cells at 10 uM incubated for 48 hrs by sulforhodamine B assay relative to control; assay type: functional; conditions: values are per cent of control
UACC-62 = assay: Growth of human UACC62 cells at 10 uM incubated for 48 hrs by sulforhodamine B assay relative to control; conditions: UACC-62, 48 h
U-251 = assay: Growth of human U251 cells at 10 uM incubated for 48 hrs by sulforhodamine B assay relative to control; conditions: U-251, 48 h
MDA-MB-231 = assay: Growth inhibition of human MDA-MB-231 cells at 10 uM incubated for 48 hrs by sulforhodamine B assay relative to control; assay type: functional; conditions: MDA-MB-231, 48 h, values are per cent of control
CCRF-CEM = assay: Growth of human CCRF-CEM cells at 10 uM incubated for 48 hrs by sulforhodamine B assay relative to control
K562 = assay: Growth of human K562 cells at 10 uM incubated for 48 hrs by sulforhodamine B assay relative to control; conditions: K562, 48 h
NCI-H322M = assay: Growth inhibition of human NCI-H322M cells at 10 uM incubated for 48 hrs by sulforhodamine B assay relative to control; assay type: functional; conditions: values are per cent of control
SK-OV-3 = assay: Growth inhibition of human SKOV3 cells at 10 uM incubated for 48 hrs by sulforhodamine B assay relative to control; assay type: functional; conditions: SK-OV-3, 48 h, values are per cent of control
SF-268 = assay: Growth of human SF268 cells at 10 uM incubated for 48 hrs by sulforhodamine B assay relative to control; conditions: SF-268, 48 h
ACHN = assay: Growth inhibition of human ACHN cells at 10 uM incubated for 48 hrs by sulforhodamine B assay relative to control; assay type: functional; conditions: values are per cent of control
DU-145 = assay: Growth inhibition of human DU145 cells at 10 uM incubated for 48 hrs by sulforhodamine B assay relative to control; assay type: functional; conditions: DU-145, 48 h, values are per cent of control
M14 = assay: Growth of human M14 cells at 10 uM incubated for 48 hrs by sulforhodamine B assay relative to control; conditions: M14, 48 h
NCI-H226 = assay: Growth inhibition of human NCI-H226 cells at 10 uM incubated for 48 hrs by sulforhodamine B assay relative to control; assay type: functional; conditions: NCI-H226, 48 h, values are per cent of control
HOP-92 = assay: Growth inhibition of human HOP92 cells at 10 uM incubated for 48 hrs by sulforhodamine B assay relative to control; assay type: functional; conditions: HOP-92, 48 h, values are per cent of control

| SMILES | growth, % of control at 10 µM (SK-MEL-5) [%] | growth, % of control at 10 µM (HOP-62) [%] | growth, % of control at 10 µM (OVCAR-5) [%] | growth, % of control at 10 µM (HL-60(TB)) [%] | growth, % of control at 10 µM (Malme-3M) [%] | growth, % of control at 10 µM (UACC-257) [%] | growth, % of control at 10 µM (SF-539) [%] | growth, % of control at 10 µM (OVCAR-4) [%] | growth, % of control at 10 µM (A549) [%] | growth, % of control at 10 µM (MCF7) [%] | growth, % of control at 10 µM (HCT-116) [%] | growth, % of control at 10 µM (TK-10) [%] | growth, % of control at 10 µM (IGROV-1) [%] | growth, % of control at 10 µM (T47D) [%] | growth, % of control at 10 µM (UACC-62) [%] | growth, % of control at 10 µM (U-251) [%] | growth, % of control at 10 µM (MDA-MB-231) [%] | growth, % of control at 10 µM (CCRF-CEM) [%] | growth, % of control at 10 µM (K562) [%] | growth, % of control at 10 µM (NCI-H322M) [%] | also measured |
| --- | --- | --- | --- | --- | --- | --- | --- | --- | --- | --- | --- | --- | --- | --- | --- | --- | --- | --- | --- | --- | --- |
| CCS/C(Nc1ccccc1)=C(\C#N)C(=O)N/N=C\c1ccco1 | 101 | 97.4 | 106 | 84.2 | 95.9 | 84.4 | 98.7 | 106 | 86.7 | 66.8 | 95.5 | 103 | 105 | 78 | 97.7 | 94 | 96.2 | 91.2 | 97.8 | 101 | growth, % of control at 10 µM (SK-OV-3): 99.3%; growth, % of control at 10 µM (SF-268): 98%; growth, % of control at 10 µM (ACHN): 105%; growth, % of control at 10 µM (DU-145): 106%; growth, % of control at 10 µM (M14): 99.2%; growth, % of control at 10 µM (NCI-H226): 95.2%; growth, % of control at 10 µM (HOP-92): 94.7% |
| CCS/C(Nc1ccccc1)=C(\C#N)C(=O)Nc1ccccc1 | 93.5 | 93.1 | 96.5 | 58.1 | 117 | 103 | 104 | 102 | 86.2 | 98.6 | 92.7 | 76.7 | 105 | 70.1 | 79.8 | 92.6 | 94.2 | 82.4 | 89.9 | 97.2 | growth, % of control at 10 µM (SK-OV-3): 88.2%; growth, % of control at 10 µM (SF-268): 91.2%; growth, % of control at 10 µM (ACHN): 102%; growth, % of control at 10 µM (DU-145): 102%; growth, % of control at 10 µM (M14): 128%; growth, % of control at 10 µM (NCI-H226): 92.9%; growth, % of control at 10 µM (HOP-92): 53% |
| CCS/C(Nc1ccccc1)=C(\C#N)C(=O)Nc1ccc(C)cc1 | 93.6 | 103 | 101 | 45.9 | 101 | 99.3 | 98.2 | 101 | 84.5 | 92.3 | 90 | 81.7 | 99 | 72.1 | 80.3 | 96.6 | 98.9 | 85.8 | 80.1 | 96.6 | growth, % of control at 10 µM (SK-OV-3): 101%; growth, % of control at 10 µM (SF-268): 86.8%; growth, % of control at 10 µM (ACHN): 96.8%; growth, % of control at 10 µM (DU-145): 95.2%; growth, % of control at 10 µM (M14): 112%; growth, % of control at 10 µM (NCI-H226): 95%; growth, % of control at 10 µM (HOP-92): 62.3% |
| CC(C)(C)S/C(Nc1ccccc1)=C(\C#N)C(=O)Nc1ccccc1 | 102 | 90.6 | 100 | 82.3 | 97.3 | 92.9 | 100 | 100 | 88.4 | 100 | 95.2 | 90.9 | 108 | 85.2 | 94.9 | 92 | 98.5 | 86.4 | 95.9 | 101 | growth, % of control at 10 µM (SK-OV-3): 105%; growth, % of control at 10 µM (SF-268): 86.3%; growth, % of control at 10 µM (ACHN): 103%; growth, % of control at 10 µM (DU-145): 107%; growth, % of control at 10 µM (M14): 100%; growth, % of control at 10 µM (NCI-H226): 88.9%; growth, % of control at 10 µM (HOP-92): 91.4% |
| CC(C)(C)S/C(Nc1ccccc1)=C(\C#N)C(=O)N/N=C\c1ccco1 | 96.9 | 93.8 | 101 | 63.6 | 104 | 83 | 94.3 | 104 | 79.6 | 92.3 | 82.9 | 103 | 106 | 91.4 | 93.5 | 94.7 | 99.6 | 92.2 | 100 | 102 | growth, % of control at 10 µM (SK-OV-3): 89.3%; growth, % of control at 10 µM (SF-268): 99.7%; growth, % of control at 10 µM (ACHN): 98%; growth, % of control at 10 µM (DU-145): 109%; growth, % of control at 10 µM (M14): 105%; growth, % of control at 10 µM (NCI-H226): 92%; growth, % of control at 10 µM (HOP-92): 82.3% |
| CC(C)(C)S/C(Nc1ccccc1)=C(\C#N)C(=O)N/N=C\c1ccc(Cl)cc1Cl | 98.7 | 98.1 | 106 | 89.2 | 94.2 | 92.5 | 98 | 112 | 98.1 | 92.7 | 88 | 99.1 | 98.7 | 78.4 | 89.9 | 98.6 | 96.8 | 88.3 | 91.8 | 99.8 | growth, % of control at 10 µM (SK-OV-3): 101%; growth, % of control at 10 µM (SF-268): 99.7%; growth, % of control at 10 µM (ACHN): 105%; growth, % of control at 10 µM (DU-145): 113%; growth, % of control at 10 µM (M14): 98.5%; growth, % of control at 10 µM (NCI-H226): 92.6%; growth, % of control at 10 µM (HOP-92): 94.1% |
